Assay results reported in patent US11638427B2, “Methods and compositions for altering secondary metabolites in plants” (Impello Biosciences, Inc, priority 2020, dated 2023).

Key:
[1] = tested on: high-CBD hemp varieties Stormy Daniels and BaOX; assay: Field foliar applications of MDJ, MeJA and CJ on high-CBD hemp, cannabinoid analysis; assay type: in vivo, Cannabis spp.; details: 7.5 mM foliar, four applications every 14 days in flowering
Procedure: However, MDJ is not known to have any significant bioactivity in planta and is not an endogenously produced phytohormone in cannabis, so it was unknown whether MDJ would afford the same functionality as MeJA. Similarly, CJ has likewise been relatively under-investigated as a plant elicitor despite being a decarboxylation product of Jasmonic Acid. Here, the effect of MDJ and CJ were analyzed (in addition to MeJA) in order to determine any difference in the effect of these treatments on field-grown high-CBD hemp varieties.
A hemp field experiment was conducted during the flowering phase of plant development in a private research field located in North Carolina. Sixty (60) plants from two distinct plant variety populations, Stormy Daniels and BaOX were selected for the trial. Each group of 60 plants was randomly divided into three groups of 20 plants and labeled accordingly to indicate the treatment group (T1, T2, T3). All plants were cultivated identically and subjected to approximately the same environmental conditions. Control, untreated plants were taken from the same field. Plants were treated according to treatment group, and each treatment group was subjected to four (4) applications of its respective treatment, with the first treatments applied on what was considered to be the first day of the flowering phase and repeated then again every successive 14 days up until just prior to harvest. Treatments were as follows: Control group=Control, Treatment 1=MDJ, Treatment 2=MeJA, Treatment 3=CJ.
All treatments were prepared in a stock (concentrated, non-aqueous) form by Impello Biosciences in their lab in Loveland, Colo. and labelled respectively prior to the start of the experiment. All treatments were prepared at a high stock concentration that allowed dilution by the applicator with 2 liters of water to a final 7.5 mM concentration of active ingredient (i.e., MeJA, MDJ, or CJ) for each treatment; 15-mL centrifuge tubes were used as preparation and storage vessels for each of the treatments. Preparation of the stock solutions ensured that the applicator could store the solutions prior to use at 4° C. to minimize degradation and allow for dilution immediately prior to use. In the stock containers, 2 mL of TWEEN®-20 was added to each respective elicitor compound as an emulsifier in order to reach a final oil-in-water emulsion once diluted with a concentration of 7.5 mM active ingredient and 0.1% surfactant (i.e., TWEEN®-20) v/v.
Plants were grown to maturity and 5 plants from each treatment and control group were sampled on Sep. 23, 2019. Care was taken to ensure samples were similar in appearance and spatial location between plants to minimize unintended variance in sample quality. The apical cola for each plant was harvested, and specifically, the top 3″ of the main cola. Yield data was not collected in this study, but no obvious differences in plant size or appearance were noted. Samples were submitted for chemical analysis (Avazyme, Inc, NC).
All models were linear models fit with Group (treatment) as the independent variable and the response variable was the corresponding compound. Data was filtered and comparison between treatments were conducted using the emmeans package and Tukey HSD for post-hoc corrections. Statistical significance was defined by a level of significance of p<0.05 in the Tukey test. Total cannabinoids included CBN, Δ9-THC, CBDV, CBG, CBD, CBC, CBDA, CBGA, THCA, and THCV. Total THC and total CBD were calculated by accounting for the additional weight of the carboxyl group in the acidic forms and adding those to the neutral/non-acidic forms.

grey mold = assay: Fungal plug growth on jasmonate-infused PDA plates; assay type: cell-based, Rhizopus stolonifera; details: for grey mold growth: 1 mM, 4.25 mM, 10 mM in PDA, 72 hours post inoculation
Procedure: (§1) MDJ (TCI, CAS No.: 24851-98-7) and CJ were infused into potato dextrose agar (PDA, VWR Cat No.: 90003-494) petri dishes (100×15 mm VWR, Cat No: 25384-094) at concentrations ranging from 1 mM, 4.25 mM, and 10 mM. Each treatment was prepared using a technical grade stock solution of pure chemical (CJ or MDJ) diluted with TWEEN®-20 (VWR, CAS No.: […]). Culturable oyster mushroom and seedling mold served to create fungal mycelial plugs using a sterile 1 mL pipette tip (Eppendorf, Cat No.: 022491458) held upside down. The tips were used to make circle excisions (i.e., fungal plugs) from a mycelial mat grown on PDA with no biochemical infusions. Fungal pugs were then transferred to PDA infused with varying concentrations of CJ or MDJ, and control plates (no CJ or MDJ infusion) to monitor fungal growth at room temperature over time.
A grey mold was also tested (FIGS. 10A-10D). All plates were generated and inoculated as described above and incubated at room temperature under identical conditions. Shown in […] are plates of grey mold 72 hours post fungal inoculation. Control plates are shown on the top row, followed by concentrations of MeJA (left) and MDJ (right) in duplicate at […] (FIG. 10A), 4.25 mM (FIG. 10B), and 10 mM (FIG. 10C). […] While it was initially hypothesized that the grey mod was a species of Botrytis, subsequent sequence analysis identified the mold as Rhizopus stolonifera.

Penicillium spp. = assay: Mold growth on jasmonate-infused plates, mold isolated from orange; assay type: cell-based; details: various concentrations in plates
Procedure: as §1
Based on the above results in Cannabis spp., additional fungi from various crops was sampled and tested. Plates comprising various concentrations of MDJ or MJ were prepared as described above.

With CC/C=C\C[C@H]1C(=O)CC[C@@H]1CC(=O)OC [MeJA, Methyl Jasmonate] the “CBDA increase relative to the control group” value [1] was 5.36%, the “THCA increase relative to the control group” value [1] was 5.36% and the “Total CBD increase relative to the control group” value [1] was 5.75%. The “Total Cannabinoids increase relative to the control group” value [1] was 5.64%, the “Total THC increase relative to the control group” value [1] was 6.06% and the grey mold growth (grey mold) was “inhibited”. For the same compound, the “efficacy at inhibiting grey mold, MeJA compared with MDJ” value (grey mold; at 4.25 mM and 10 mM concentrations, 72 hours) was “more effective” and the “growth of mold isolated from orange” value (Penicillium spp.) was “effective at preventing the growth”.

For CCCCCC1C(=O)CCC1CC(=O)OC (stereo not shown) [MDJ, methyl dihydrojasmonate], the “CBDA increase relative to the control group” value [1] was 16.53%, the “THCA increase relative to the control group” value [1] was 19.69% and the “Total CBD increase relative to the control group” value [1] was 16.62%. The “Total Cannabinoids increase relative to the control group” value [1] was 16.38%, the “Total THC increase relative to the control group” value [1] was 19.61% and the grey mold growth (grey mold) was “inhibited”. The “efficacy at inhibiting grey mold, MDJ compared with MeJA” value (grey mold; at the 1 mM concentration, 72 hours) was “more effective” and the “growth of mold isolated from orange” value (Penicillium spp.) was “effective at preventing the growth”.
